Patent US11053242B2, “[9,10-dimethoxy-3-(2-methylpropyl)-1H,2H,3H,4H,6H,7H,11BH-pyrido-[2,1-a]isoquinolin-2-yl]methanol and compounds, compositions and methods relating thereto” (Neurocrine Biosciences, Inc., priority 2015, dated 2021)

molecular target: VMAT2 (human platelet homogenate) (Homo sapiens (Human), UniProt Q05940); test: Human VMAT2 Ki, slightly modified competition binding procedure (Table 11); settings: 10 nM 3H-dihydrotetrabenazine;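 further: competition binding with 90 min incubation at 25 °C, after which filter-retained radioligand was measured by scintillation counting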
Sequence (Q05940 whole entry): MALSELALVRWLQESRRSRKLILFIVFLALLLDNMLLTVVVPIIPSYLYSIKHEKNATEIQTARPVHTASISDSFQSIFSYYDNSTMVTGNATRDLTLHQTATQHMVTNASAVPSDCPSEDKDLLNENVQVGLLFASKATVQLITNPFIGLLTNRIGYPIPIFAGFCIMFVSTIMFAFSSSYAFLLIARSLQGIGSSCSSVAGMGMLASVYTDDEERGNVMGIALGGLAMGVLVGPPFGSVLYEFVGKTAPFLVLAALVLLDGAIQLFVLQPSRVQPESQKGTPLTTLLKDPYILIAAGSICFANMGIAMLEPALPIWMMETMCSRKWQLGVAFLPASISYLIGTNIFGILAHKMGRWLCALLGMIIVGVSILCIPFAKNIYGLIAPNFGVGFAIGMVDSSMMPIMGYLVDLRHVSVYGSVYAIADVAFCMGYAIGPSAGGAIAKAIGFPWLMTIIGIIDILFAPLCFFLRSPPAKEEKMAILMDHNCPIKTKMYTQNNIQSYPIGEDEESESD
Protocol: Following incubation at 25° C. for 90 minutes, bound radioligand was collected by rapid filtration onto GF/B glass fiber filters using a Unifilter-96 Harvester (PerkinElmer). Filter plates were pre-treated with 0.1% polyethylenimine and allowed to dry overnight, and following harvesting the filter plates were washed with 800 d VMAT2 binding buffer. Bound radioligand was quantified by scintillation counting using a Topcount NXT (PerkinElmer).

Row | SMILES | Ki
1 | COc1cc2c(cc1OC)[C@H]1C[C@@H](COC(=O)C3COCCN3)[C@H](CC(C)C)CN1CC2 (stereo partly drawn) [Compound 4-32, [(2R,3S,11bR)-9,10-dimethoxy-3-(2-methylpropyl)-1H,2H,3H,4H,6H,7H,11bH-pyrido[2,1-a]isoquinolin-2-yl]methyl morpholine-3-carboxylate] | 10 to 500 nM
2 | COc1cc2c(cc1OC)[C@H]1C[C@@H](COC(=O)C3CN(Cc4ccccc4)C3)[C@H](CC(C)C)CN1CC2 [Compound 2-21, [(2R,3S,11bR)-9,10-dimethoxy-3-(2-methylpropyl)-1H,2H,3H,4H,6H,7H,11bH-pyrido[2,1-a]isoquinolin-2-yl]methyl 1-benzylazetidine-3-carboxylate] | < 10 nM
3 | CCN(CC)CCC(=O)OC[C@@H]1C[C@@H]2c3cc(OC)c(OC)cc3CCN2C[C@H]1CC(C)C [Compound 2-32, [(2R,3S,11bR)-9,10-dimethoxy-3-(2-methylpropyl)-1H,2H,3H,4H,6H,7H,11bH-pyrido[2,1-a]isoquinolin-2-yl]methyl 3-(diethylamino)propanoate] | < 10 nM
4 | COc1cc2c(cc1OC)[C@H]1C[C@@H](COC(=O)N3CCO[C@@H](C)C3)[C@H](CC(C)C)CN1CC2 [Compound 5-44, [(2R,3S,11bR)-9,10-dimethoxy-3-(2-methylpropyl)-1H,2H,3H,4H,6H,7H,11bH-pyrido[2,1-a]isoquinolin-2-yl]methyl (2S)-2-methylmorpholine-4-carboxylate] | < 10 nM
5 | COC[C@@H]1C[C@@H]2c3cc(OC)c(OC)cc3CCN2C[C@H]1CC(C)C [Compound 9-1, (2R,3S,11bR)-9,10-dimethoxy-2-(methoxymethyl)-3-(2-methylpropyl)-1H,2H,3H,4H,6H,7H,11bH-pyrido[2,1-a]isoquinoline] | < 10 nM
6 | COc1cc2c(cc1OC)[C@H]1C[C@@H](COC(=O)C3(C)COC3)[C@H](CC(C)C)CN1CC2 [Compound 2-18, [(2R,3S,11bR)-9,10-dimethoxy-3-(2-methylpropyl)-1H,2H,3H,4H,6H,7H,11bH-pyrido[2,1-a]isoquinolin-2-yl]methyl 3-methyloxetane-3-carboxylate] | < 10 nM

Continued, values first:

Row | Ki | SMILES
7 | < 10 nM | COc1cc2c(cc1OC)[C@H]1C[C@@H](COC(=O)CCn3c(=O)[nH]c4ccccc4c3=O)[C@H](CC(C)C)CN1CC2 [Compound 2-3, [(2R,3S,11bR)-9,10-dimethoxy-3-(2-methylpropyl)-1H,2H,3H,4H,6H,7H,11bH-pyrido[2,1-a]isoquinolin-2-yl]methyl 3-(2,4-dioxo-1,2,3,4-tetrahydroquinazolin-3-yl)propanoate]
8 | < 10 nM | COc1cc2c(cc1OC)[C@H]1C[C@@H](COC(=O)CCN3CCN(C)CC3)[C@H](CC(C)C)CN1CC2 [Compound 2-15, [(2R,3S,11bR)-9,10-dimethoxy-3-(2-methylpropyl)-1H,2H,3H,4H,6H,7H,11bH-pyrido[2,1-a]isoquinolin-2-yl]methyl 3-(4-methylpiperazin-1-yl)propanoate]
9 | < 10 nM | COc1cc2c(cc1OC)[C@H]1C[C@@H](COC(=O)CCN3CCNCC3)[C@H](CC(C)C)CN1CC2 [Compound 4-37, [(2R,3S,11bR)-9,10-dimethoxy-3-(2-methylpropyl)-1H,2H,3H,4H,6H,7H,11bH-pyrido[2,1-a]isoquinolin-2-yl]methyl 3-(piperazin-1-yl)propanoate]
10 | < 10 nM | COc1cc2c(cc1OC)[C@H]1C[C@@H](COC(=O)CC3NC(=O)NC3=O)[C@H](CC(C)C)CN1CC2 (stereo partly drawn) [Compound 2-30, [(2R,3S,11bR)-9,10-dimethoxy-3-(2-methylpropyl)-1H,2H,3H,4H,6H,7H,11bH-pyrido[2,1-a]isoquinolin-2-yl]methyl 2-(2,5-dioxoimidazolidin-4-yl)acetate]
11 | < 10 nM | COc1cc2c(cc1OC)[C@H]1C[C@@H](COC(=O)N3CCN[C@H](C#N)C3)[C@H](CC(C)C)CN1CC2 [Compound 6-9, [(2R,3S,11bR)-9,10-dimethoxy-3-(2-methylpropyl)-1H,2H,3H,4H,6H,7H,11bH-pyrido[2,1-a]isoquinolin-2-yl]methyl (3S)-3-cyanopiperazine-1-carboxylate]
